According to patent US6395541B1, “Methods for the identification of compounds capable of inhibiting HIV-1 viral replication employing murine cell lines expressing human topoisomerase I” (The Rockefeller University, priority 1996, dated 2002):

Legend:
[1] = test system: HIV-1; settings: cited from earlier work
[2] = test system: HIV-1; settings: AIDS patients; cited from earlier work
[3] = test system: HIV-1 IIIB strain; assay: Southern hybridization of DNA from HIV-1 infected MT2 cells with drug treatment; assay type: cell-based; settings: HIV-1 IIIB 0.1 m.o.i., 72 hrs, drugs 0.01-10 μg/ml
Experimental: FIG. 5. Southern hybridization of DNA from HIV-1 infected cells with drug treatment. […] cells, MT2, infected with the HIV-1 IIIB strain were treated with AZT, CPT or TAN at concentrations (from right to left) AZT 0.01, 0.1, 1.0, 10 μg/ml, CPT 0.01, 0.1, 1.0 μg/ml, TAN 0.01, 0.1, 1.0 μg/ml respectively.
MT2 cells were incubated for 2 hours with HIV-1 IIIB strain (Ratner et al., 1985 Nature 313: 277-284) at 0.1 m.o.i. with drugs. Concentrations ranged from no drugs 0,0, AZT 0.01, 0.1, 1, 10 μg/mi, CPT 0.01, 0. 1, 1 μg/ml TAN 0.01, 0. 1, 1 μg/ml, CPT 0.1, 1, 10 μg/ml, TAN 0.1, 1, 10 μg/mi respectively (FIG. 5). After washing with PBS 3 times, cells were incubated again for 72 hrs with or without concentration of drugs as indicated, then lysed with 1% SDS, 10 Mm Tris HCl (pH 8.0), 5 Mm EDTA, 1M NaCl(Hirt's method. Following overnight incubation at 4 C., large molecule of DNA were precipitated by centrifugation. Supernatants were treated with 100 μg/ml of protease K at 56° C. for 2 hrs and after treated with phenol-chloroform, small molecules of DNA were precipitated and subjected to southern hybridization. Transferred nylon membrane (Schleicher & Schuell) were probed with (α-^32P) dCTP-random-primed-labeled primer.

[4] = biological target: T1, topo I (Homo sapiens, UniProt P11387); assay: Reverse transcriptase assay, ssDNA synthesis and strand transfer in presence of topo I; assay type: biochemical; settings: topo I 0.16 unit per 50 μl; CPT 400, 40 and 4 μM; concentration-dependent
T1 sequence (P11387 1-765): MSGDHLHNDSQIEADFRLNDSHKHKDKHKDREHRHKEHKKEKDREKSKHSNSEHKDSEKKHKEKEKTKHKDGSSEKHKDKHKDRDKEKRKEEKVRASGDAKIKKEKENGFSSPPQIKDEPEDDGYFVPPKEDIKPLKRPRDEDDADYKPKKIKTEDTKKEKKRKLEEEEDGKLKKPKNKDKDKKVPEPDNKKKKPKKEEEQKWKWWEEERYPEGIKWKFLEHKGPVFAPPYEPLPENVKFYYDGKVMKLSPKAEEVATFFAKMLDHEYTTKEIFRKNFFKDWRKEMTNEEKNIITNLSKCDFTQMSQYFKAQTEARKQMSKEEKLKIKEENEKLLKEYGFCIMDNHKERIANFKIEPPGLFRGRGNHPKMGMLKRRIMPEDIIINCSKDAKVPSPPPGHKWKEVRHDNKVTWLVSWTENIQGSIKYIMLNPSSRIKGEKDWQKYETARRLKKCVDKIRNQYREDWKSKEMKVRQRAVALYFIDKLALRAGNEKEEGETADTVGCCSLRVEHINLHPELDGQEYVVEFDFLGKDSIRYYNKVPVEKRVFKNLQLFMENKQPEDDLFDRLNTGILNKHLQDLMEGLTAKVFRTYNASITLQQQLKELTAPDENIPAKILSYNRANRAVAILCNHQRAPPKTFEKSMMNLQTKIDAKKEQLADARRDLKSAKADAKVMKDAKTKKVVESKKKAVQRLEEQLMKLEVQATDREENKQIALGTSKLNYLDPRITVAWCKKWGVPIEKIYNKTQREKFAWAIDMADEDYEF
Source text: Analysis of ssDNA synthesis and strand transfer. […] Schematic representation of two RNA templates employed. […] The 3′RNA represents the 3′end of the HIV-1 RNA and contains the R region and the poly(A) tail. ssDNA synthesis was initiated by an end labeled primer (*) corresponding to the primer binding site (PBS) in the 5′RNA. After strand transfer to the 3′RNA, this would be expected to result in a cDNA product of 867 nucleotides. […] Phosphorescence image analysis of the cDNA product after agarose gel electrophoresis. The presence and absence of 5′RNA and 3′RNA templates are indicated by + and −, respectively. The effects of CPT at concentrations of 400, 40 and 4 μM are indicated by +. Topo I was used at the final concentration of 0.16 unit per 50 μl in all experiments.
Reaction mixtures obtained 300 ng of RNA template in 50 μl of 50 Mm TrisHCL (pH 8.0) containing 150 Mm KCl, 5 Mm MgCl^2, 5 Mm dithiothreitol, 0.5 Mm EGTA, 0.4 unit of RNasin (Promega), 0.1 unit of HIV-1 RT (Seikagaku, Kogyo, Tokyo), 100 ng of primer, 250 μM dNTPs, bovine serum albumin at 0.1 mg/ml, GST-P15 at 0.8 μg/ml 10 μl of glutathione beads (50% vol/vol; Pharmacia), and topo I at final concentrations of 0.16, 0.032 and 0.0064 unit. Samples were incubated at 37° C. for 25 min. […] Gels were dried onto nylon membranes and analyzed with a Fuji BAS2000 phosphorescence imager. […] Reaction products were analyzed as above.

[5] = biological target: T1, topo I; assay: Reverse transcriptase assay, linear cDNA synthesis from 5'/3' HIV-1 RNA template in presence of topo I; assay type: biochemical; settings: HIV-1 RT with topo I 0.16 unit; CPT 400, 40, 4 and 0 μM; concentration dependent
Source text: Influence of cellular topo I on HIV-1 RT activity. […] An end-labeled primer (*) was employed to initiate cDNA synthesis and would be expected to result in a product of 1481 nucleotides (nt). […] Phosphorescence image analysis of cDNA products following agarose gel electrophoresis. The presence or absence of topo I is indicated by + and −, respectively. Similarly the presence or absence of CPT is indicated by + and −.
To analyze the influence of topo I on linear cDNA synthesis, the template containing both the 5′ and 3′ ends of HIV-1 RNA was used. cDNA synthesis expected to result in a product of 1481 nucleotides was initiated using a nef gene primer end-labeled with [θ-^32P]ATP (5′-[sequence]-3′; nucleotides 9002-9027). Reaction mixtures obtained 300 ng of RNA template in 50 μl of 50 Mm TrisHCL (pH 8.0) containing 150 Mm KCl, 5 Mm MgCl^2, 5 Mm dithiothreitol, 0.5 Mm EGTA, 0.4 unit of RNasin (Promega), 0.1 unit of HIV-1 RT (Seikagaku, Kogyo, Tokyo), 100 ng of primer, 250 μM dNTPs, bovine serum albumin at 0.1 mg/ml, GST-P15 at 0.8 μg/ml 10 μl of glutathione beads (50% vol/vol; Pharmacia), and topo I at final concentrations of 0.16, 0.032 and 0.0064 unit. Samples were incubated at 37° C. for 25 min. […] Gels were dried onto nylon membranes and analyzed with a Fuji BAS2000 phosphorescence imager.

Compound	antiviral activity in vitro [1]	CD4 lymphocyte counts [2]	plasma HIV-1 levels [2]	HIV-replication in HIV-infected cells, Southern blot analysis [3]	cDNA product of 867 nucleotides (ssDNA synthesis and strand transfer) [4]	cDNA synthesis (1481 nucleotide product) [5]
CC(C)c1nc(CN(C)C(=O)N[C@H](C(=O)N[C@@H](Cc2ccccc2)C[C@H](O)[C@H](Cc2ccccc2)NC(=O)OCc2cncs2)C(C)C)cs1 [ABT-538]	potent antiviral activity	rise substantially	decrease exponentially			
CC[C@@]1(O)C(=O)OCc2c1cc1n(c2=O)Cc2cc3ccccc3nc2-1 [CPT, camptothecin]				reduced HIV-replication	inhibited	inhibited
